Reference: patent publication US20250339415A1, “DISULFIDE COMPOUNDS AS MEDICAMENTS” (CYTACOAT AB, priority 2021, published 2025)

Key:
E. coli = test: Combination therapy: Fradiomycin with PDEA, visible growth; assay type: cell-based; details: no PDEA
Procedure: (§1) Different concentrations of Fradiomycin in Mueller Hinton were prepared in 3 different concentrations of PDEA. E. coli and S. aureus were inoculated (10^5) and were incubated overnight. Readouts were “Clear” and “Foggy”.

S. aureus = test: as above; assay type: cell-based; details: no PDEA
Procedure: as §1

In the case of `NC[C@@H]1O[C@H](O[C@H]2[C@@H](O)[C@H](O[C@@H]3[C@@H](O)[C@H](N)C[C@H](N)[C@H]3O[C@H]3O[C@H](CN)[C@@H](O)[C@H](O)[C@H]3N)O[C@@H]2CO)[C@H](N)[C@@H](O)[C@@H]1O` [Fradiomycin], the visible growth readout (E. coli; Fradiomycin 0.0156 μg/ml) is reported as “Foggy”, the visible growth readout (E. coli; Fradiomycin 0.03125 μg/ml) is reported as “Foggy” and the visible growth readout (E. coli; Fradiomycin 0.0625 μg/ml) is reported as “Foggy”. The visible growth readout (E. coli; Fradiomycin 0.125 μg/ml) was “Foggy”, the visible growth readout (E. coli; Fradiomycin 0.25 μg/ml) was “Foggy” and the visible growth readout (E. coli; Fradiomycin 0.5 μg/ml) was “Foggy”. The visible growth readout (E. coli; Fradiomycin 2 μg/ml) was “Clear”, the visible growth readout (E. coli; Fradiomycin 4 μg/ml) was “Clear” and the visible growth readout (E. coli; Fradiomycin 8 μg/ml) was “Clear”. For the same molecule, the visible growth readout (E. coli; Fradiomycin 16 μg/ml) was “Clear”, the visible growth readout (E. coli; Fradiomycin 32 μg/ml) was “Clear” and the visible growth readout (E. coli; Fradiomycin 64 μg/ml) was “Clear”. For the same molecule, the visible growth readout (E. coli; Fradiomycin 128 μg/ml) was “Clear”, the visible growth readout (E. coli; Fradiomycin 256 μg/ml) was “Clear” and the visible growth readout (S. aureus; Fradiomycin 0.0156 μg/ml) was “Foggy”. For the same molecule, the visible growth readout (S. aureus; Fradiomycin 0.03125 μg/ml) was “Foggy”, the visible growth readout (S. aureus; Fradiomycin 0.0625 μg/ml) was “Foggy” and the visible growth readout (S. aureus; Fradiomycin 0.125 μg/ml) was “Foggy”. The visible growth readout (S. aureus; Fradiomycin 0.25 μg/ml) was “Foggy”, the visible growth readout (S. aureus; Fradiomycin 0.5 μg/ml) was “Foggy” and the visible growth readout (S. aureus; Fradiomycin 1 μg/ml) was “Clear”. For the same molecule, the visible growth readout (S. aureus; Fradiomycin 2 μg/ml) was “Clear”, the visible growth readout (S. aureus; Fradiomycin 4 μg/ml) was “Clear” and the visible growth readout (S. aureus; Fradiomycin 8 μg/ml) was “Clear”. The visible growth readout (S. aureus; Fradiomycin 16 μg/ml) was “Clear”, the visible growth readout (S. aureus; Fradiomycin 32 μg/ml) was “Clear” and the visible growth readout (S. aureus; Fradiomycin 64 μg/ml) was “Clear”. For the same molecule, the visible growth readout (S. aureus; Fradiomycin 128 μg/ml) was “Clear” and the visible growth readout (S. aureus; Fradiomycin 256 μg/ml) was “Clear”.
